This is an account of results in patent publication US20230357249A1, “ANDROGEN RECEPTOR PROTEIN DEGRADERS WITH A TRICYCLIC CEREBLON LIGAND” (THE REGENTS OF THE UNIVERSITY OF MICHIGAN, priority 2020, published 2023).

This test addresses T1, AR protein (Homo sapiens, UniProt P10275).
T1 construct: endogenous in cells; host or cells: VCaP
T1 sequence (P10275 1-920): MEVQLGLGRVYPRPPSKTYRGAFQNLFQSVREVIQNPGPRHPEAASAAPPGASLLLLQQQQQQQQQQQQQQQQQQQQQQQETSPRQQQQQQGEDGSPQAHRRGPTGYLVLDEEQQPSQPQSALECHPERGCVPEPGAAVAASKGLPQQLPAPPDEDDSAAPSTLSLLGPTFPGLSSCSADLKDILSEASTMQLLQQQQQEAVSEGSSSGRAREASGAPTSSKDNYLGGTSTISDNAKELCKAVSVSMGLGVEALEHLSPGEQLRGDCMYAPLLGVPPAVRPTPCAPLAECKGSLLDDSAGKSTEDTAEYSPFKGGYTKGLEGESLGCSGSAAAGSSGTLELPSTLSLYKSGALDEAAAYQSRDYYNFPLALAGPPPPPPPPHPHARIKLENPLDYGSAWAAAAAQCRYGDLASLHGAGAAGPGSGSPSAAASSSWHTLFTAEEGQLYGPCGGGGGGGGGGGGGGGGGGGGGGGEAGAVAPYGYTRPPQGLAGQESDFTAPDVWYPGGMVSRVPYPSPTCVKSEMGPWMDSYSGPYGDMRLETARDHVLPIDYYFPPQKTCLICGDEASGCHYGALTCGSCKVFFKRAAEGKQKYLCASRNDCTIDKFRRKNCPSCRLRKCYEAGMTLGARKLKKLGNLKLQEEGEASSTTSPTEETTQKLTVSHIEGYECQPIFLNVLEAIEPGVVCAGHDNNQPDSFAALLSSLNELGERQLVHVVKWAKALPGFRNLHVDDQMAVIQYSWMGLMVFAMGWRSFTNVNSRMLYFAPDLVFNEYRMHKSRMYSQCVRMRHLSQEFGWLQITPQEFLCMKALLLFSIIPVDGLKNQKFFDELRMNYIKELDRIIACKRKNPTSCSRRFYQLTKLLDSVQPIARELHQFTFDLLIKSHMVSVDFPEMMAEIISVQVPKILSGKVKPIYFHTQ
Kind of test: AR protein degradation in VCaP cells, Western blotting. The test is classed as cell-based. More on the design: key to AR protein degradation VCap 10 nM / AR protein degradation VCap 100 nM: A: >90% degradation (24 hr treatment); B: >50% degradation but <90% (24 hr treatment); C: >10% degradation but <50% (24 hr treatment); D: No significant degradation (24 hr treatment). To be noted: 24 hr treatment; for percent AR protein degradation at 0.01 µM / AR protein degradation VCap 10 nM: 10 nM; for percent AR protein degradation at 0.1 µM / AR protein degradation VCap 100 nM: 100 nM. On the procedure:
The appropriate cell line, e.g., prostate cancer LNCaP, Vcap, or 22RV1 cell line, was treated with Compounds of the Disclosure as indicated. The treated cells were lysed with RIPA buffer. The AR level in the cell lysates was examined by western blotting and a specific AR antibody (ab194196, Abcam, Cambridge, MA 02139) with concentration of 1:20,000. GAPDH was used as a loading control.
Bands were quantified with ImageJ software. The relative numbers of each band obtained from normalization with its corresponding GAPDH level were compared with Prism 8 software. The DC50 values were produced from Prism 8, and the DC90 values were calculated with an equation=Bottom + (Top-Bottom)/(1+10^((LogEC50-X)*HillSlope) based on DC50 and Hillslope values.
The amount of AR protein degradation in VCap and MDA-MB-453 cells caused by representative Compounds of the Disclosure at the concentrations indicated is presented in Table 4, FIG. 1, and FIG. 2.
(A western blot detects proteins with antibodies after separation by electrophoresis.)

A value given as a limit tells only on which side of the number the result lay.

With `N#Cc1ccc(O[C@H]2CC[C@H](NC(=O)c3ccc4c(c3)CCN(CC(=O)N3CCc5cc6c(cc5C3)C(=O)N(C3CCC(=O)NC3=O)C6=O)C4)CC2)cc1Cl` (stereo partly drawn) [compound 28], the percent AR protein degradation at 0.01 µM was in the range of 50 to 90% and the percent AR protein degradation at 0.1 µM was 50 to 90%.
With `N#Cc1ccc(O[C@H]2CC[C@H](NC(=O)c3ccc4c(c3)CCN(CC(=O)N3CCc5cc6c(cc5C3)C(=O)N(C3CCC(=O)NC3=O)C6=O)CC4)CC2)cc1Cl` (stereo partly drawn) [compound 29], the percent AR protein degradation at 0.01 µM fell in the range of 50 to 90% and the percent AR protein degradation at 0.1 µM is over 90%.
In turn, `C[C@H]1CCN(c2ccc(C(=O)N3CCC(N4Cc5cc6c(cc5C4)C(=O)N(C4CCC(=O)NC4=O)C6=O)CC3)cc2)CCN1c1ccc(C#N)c(Cl)c1` (stereo partly drawn) [compound 119] came in with a percent AR protein degradation at 0.01 µM of 50 to 90% and a percent AR protein degradation at 0.1 µM of 50 to 90%.
`C[C@H]1CCN(c2ccc(C(=O)N3CCC(CN4Cc5cc6c(cc5C4)C(=O)N(C4CCC(=O)NC4=O)C6=O)CC3)cc2)CCN1c1ccc(C#N)c(Cl)c1` (stereo partly drawn) [compound 120] gave a percent AR protein degradation at 0.01 µM of 50 to 90% and a percent AR protein degradation at 0.1 µM of 50 to 90%.
As to `C[C@@H]1CCN(C(=O)c2ccc(N3CCC(CN4Cc5cc6c(cc5C4)C(=O)N(C4CCC(=O)NC4=O)C6=O)CC3)cc2)C[C@H]1Oc1ccc(C#N)c(Cl)c1` (stereo partly drawn) [compound 121], the “AR protein degradation VCap 10 nM” value was “D” and the “AR protein degradation VCap 100 nM” value is reported as “D”.
Consider `C[C@@H]1CN(C(=O)c2ccc(N3CCC(CN4Cc5cc6c(cc5C4)C(=O)N(C4CCC(=O)NC4=O)C6=O)CC3)cc2)C[C@H]1Oc1ccc(C#N)c(Cl)c1` (stereo partly drawn) [compound 122], for which the “AR protein degradation VCap 10 nM” value is recorded as “D” and the “AR protein degradation VCap 100 nM” value is on record as “D”.
Regarding `N#Cc1ccc(OC2CC3(CC(NC(=O)c4ccc(N5CCC(CN6Cc7cc8c(cc7C6)C(=O)N(C6CCC(=O)NC6=O)C8=O)CC5)cc4)C3)C2)cc1Cl` (stereo not drawn) [compound 124], the “AR protein degradation VCap 10 nM” value was “D” and the percent AR protein degradation at 0.1 µM lay in the range of 50 to 90%.
In the same order, the values of `N#Cc1ccc(OC2CCC3(CC2)CC(NC(=O)c2ccc(N4CCC(CN5Cc6cc7c(cc6C5)C(=O)N(C5CCC(=O)NC5=O)C7=O)CC4)cc2)C3)cc1Cl` (stereo not drawn) [compound 125] are “D” and 10 to 50%.
For the compound `N#Cc1ccc(OC2CC3(CCC(NC(=O)c4ccc(N5CCC(CN6Cc7cc8c(cc7C6)C(=O)N(C6CCC(=O)NC6=O)C8=O)CC5)cc4)CC3)C2)cc1Cl` (stereo not drawn) [compound 126], the “AR protein degradation VCap 10 nM” value is on record as “D” and the percent AR protein degradation at 0.1 µM lay within 10 to 50%.
For the compound `N#Cc1ccc(OC2CCN(C(=O)Oc3ccc(C(=O)N4CCC(CN5Cc6cc7c(cc6C5)C(=O)N(C5CCC(=O)NC5=O)C7=O)CC4)cc3)CC2)cc1Cl` (stereo not drawn) [compound 131], the “AR protein degradation VCap 10 nM” value is reported as “D” and the percent AR protein degradation at 0.1 µM fell in the range of 10 to 50%.
`N#Cc1ccc(OC2CCN(C(=O)Nc3ccc(C(=O)N4CCC(CN5Cc6cc7c(cc6C5)C(=O)N(C5CCC(=O)NC5=O)C7=O)CC4)cc3)CC2)cc1Cl` (stereo not drawn) [compound 132]: the “AR protein degradation VCap 10 nM” value is given as “D” and the “AR protein degradation VCap 100 nM” value is reported as “D”.
Regarding `N#Cc1ccc(O[C@H]2CC[C@H](N3Cc4cc(C(=O)N5CCC(N6Cc7cc8c(cc7C6)C(=O)N(C6CCC(=O)NC6=O)C8=O)CC5)ccc4C3=O)CC2)cc1Cl` (stereo partly drawn) [compound 173], the percent AR protein degradation at 0.01 µM fell in the range of 10 to 50% and the percent AR protein degradation at 0.1 µM was over 90%.
Regarding `N#Cc1ccc(O[C@H]2CC[C@H](N3Cc4cc(C(=O)N5CCC(CN6Cc7cc8c(cc7C6)C(=O)N(C6CCC(=O)NC6=O)C8=O)CC5)ccc4C3=O)CC2)cc1Cl` (stereo partly drawn) [compound 174], the “AR protein degradation VCap 10 nM” value is recorded as “D” and the percent AR protein degradation at 0.1 µM is over 90%.
The compound `CC1(C)C(Nc2ccc(C(=O)N3CCC(CN4Cc5cc6c(cc5C4)C(=O)N(C4CCC(=O)NC4=O)C6=O)CC3)cc2)C(C)(C)C1Oc1ccc(C#N)c(Cl)c1` (stereo not drawn) [compound 175] returned a percent AR protein degradation at 0.01 µM of 10 to 50% and a percent AR protein degradation at 0.1 µM of 50 to 90%.
`CC1(C)C(Nc2ccc(C(=O)N3CCC(N4Cc5cc6c(cc5C4)C(=O)N(C4CCC(=O)NC4=O)C6=O)CC3)cc2)C(C)(C)C1Oc1ccc(C#N)c(Cl)c1` (stereo not drawn) [compound 176] had a percent AR protein degradation at 0.01 µM of 10 to 50% and a percent AR protein degradation at 0.1 µM of over 90%.
In the same order, the values of `CN(c1ccc(C#N)c(Cl)c1)[C@H]1CC[C@H](NC(=O)c2ccc(CN3CCC(N4Cc5cc6c(cc5C4)C(=O)N(C4CCC(=O)NC4=O)C6=O)CC3)cc2)CC1` (stereo partly drawn) [compound 278] are over 90% and over 90%.
`CN(c1ccc(C#N)c(Cl)c1)[C@H]1CC[C@H](NC(=O)c2ccc([C@H]3CC[C@H](CN4Cc5cc6c(cc5C4)C(=O)N(C4CCC(=O)CC4=O)C6=O)CC3)cc2)CC1` (stereo partly drawn) [compound 280] showed a percent AR protein degradation at 0.01 µM of over 90% and a percent AR protein degradation at 0.1 µM of over 90%.
On to `CN(c1ccc(C#N)c(Cl)c1)[C@H]1CC[C@H](NC(=O)c2ccc(O[C@H]3CC[C@H](N4Cc5cc6c(cc5C4)C(=O)N(C4CCC(=O)NC4=O)C6=O)CC3)cc2)CC1` (stereo partly drawn) [compound 281, N-((1r,4r)-4-((3-Chloro-4-Cyanophenyl)(Methyl)Amino)Cyclohexyl)-4-(((1r,4r)-4-(6-(2,6-Dioxopiperidin-3-Yl)-5,7-Dioxo-3,5,6,7-Tetrahydropyrrolo[3,4-F]Isoindol-2(1h)-Yl)Cyclohexyl)Oxy)Benzamide], for which the percent AR protein degradation at 0.01 µM is over 90% and the percent AR protein degradation at 0.1 µM is over 90%.
In turn, `CN(c1ccc(C#N)c(Cl)c1)[C@H]1CC[C@H](NC(=O)c2ccc([C@H]3CC[C@H](CN4Cc5cc6c(cc5C4)C(=O)N(C4CCC(=O)NC4=O)C6=O)CC3)cn2)CC1` (stereo partly drawn) [compound 313] showed a percent AR protein degradation at 0.01 µM of over 90% and a percent AR protein degradation at 0.1 µM of over 90%.
`CN(c1ccc(C#N)c(Cl)c1)[C@H]1CC[C@H](NC(=O)c2ccc(N3CCC(CN4Cc5cc6c(cc5C4)C(=O)N(C4CCC(=O)NC4=O)C6=O)CC3)nc2)CC1` (stereo partly drawn) [compound 323] registered a percent AR protein degradation at 0.01 µM of over 90% and a percent AR protein degradation at 0.1 µM of over 90%.
For the compound `CN(c1ccc(C#N)c(Cl)c1)[C@H]1CC[C@H](NC(=O)c2ccc(N3CCC(CN4Cc5cc6c(cc5C4)C(=O)N(C4CCC(=O)NC4=O)C6=O)CC3)cn2)CC1` (stereo partly drawn) [compound 324], the percent AR protein degradation at 0.01 µM is over 90% and the percent AR protein degradation at 0.1 µM is over 90%.
For `CN(c1ccc(C#N)c(Cl)c1)[C@H]1CC[C@H](NC(=O)c2ccc(N3CCC(CN4Cc5cc6c(cc5C4)C(=O)N(C4CCC(=O)NC4=O)C6=O)CC3)nn2)CC1` (stereo partly drawn) [compound 325], the percent AR protein degradation at 0.01 µM was over 90% and the percent AR protein degradation at 0.1 µM was over 90%.
`CN(c1ccc(C#N)c(Cl)c1)[C@H]1CC[C@H](NC(=O)c2ccc(CN3CCC(C(=O)N4Cc5cc6c(cc5C4)C(=O)N(C4CCC(=O)NC4=O)C6)CC3)cc2)CC1` (stereo partly drawn) [compound 326]: the percent AR protein degradation at 0.01 µM is over 90% and the percent AR protein degradation at 0.1 µM is over 90%.
`CN(c1ccc(C#N)c(Cl)c1)[C@H]1CC[C@H](NC(=O)c2ccc(N3CCN(CC(=O)N4Cc5cc6c(cc5C4)C(=O)N(C4CCC(=O)NC4=O)C6)CC3)cc2)CC1` (stereo partly drawn) [compound 327, N-((1r,4r)-4-((3-Chloro-4-Cyanophenyl)(Methyl)Amino)Cyclohexyl)-4-(4-(2-(6-(2,6-Dioxopiperidin-3-Yl)-5-Oxo-3,5,6,7-Tetrahydropyrrolo[3,4-F]Isoindol-2(1h)-Yl)-2-Oxoethyl)Piperazin-1-Yl)Benzamide] yielded a percent AR protein degradation at 0.01 µM of over 90% and a percent AR protein degradation at 0.1 µM of over 90%.
